Key:
Stromelysin-1 = Stromelysin-1 (Homo sapiens, UniProt P08254); experiment: Inhibitory potency against Matrix metalloprotease-3 (MMP-3)
Interstitial collagenase = molecular target: T1, Interstitial collagenase (Homo sapiens, UniProt P03956); experiment: Inhibitory potency against Matrix metalloprotease-1 (MMP-1)
T1 sequence (P03956 whole entry): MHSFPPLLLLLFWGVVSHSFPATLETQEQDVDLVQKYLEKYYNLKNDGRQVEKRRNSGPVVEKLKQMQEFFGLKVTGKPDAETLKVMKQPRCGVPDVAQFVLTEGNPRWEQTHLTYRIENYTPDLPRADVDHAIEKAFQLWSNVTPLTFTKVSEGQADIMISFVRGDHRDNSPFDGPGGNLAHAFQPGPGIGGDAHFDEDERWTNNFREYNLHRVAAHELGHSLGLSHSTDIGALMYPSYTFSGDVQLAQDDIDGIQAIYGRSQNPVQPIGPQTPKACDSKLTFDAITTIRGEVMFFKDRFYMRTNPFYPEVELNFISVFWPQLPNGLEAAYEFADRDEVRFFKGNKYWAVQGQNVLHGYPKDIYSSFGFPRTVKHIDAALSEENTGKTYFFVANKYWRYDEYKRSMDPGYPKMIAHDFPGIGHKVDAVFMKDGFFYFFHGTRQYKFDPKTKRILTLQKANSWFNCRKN

[1] = molecular target: Disintegrin and metalloproteinase domain-containing protein 17 (Homo sapiens, UniProt P78536); experiment: Inhibitory potency against Tumor necrosis factor alpha converting enzyme (TACE)
Sequence of Disintegrin and metalloproteinase domain-containing protein 17 (P78536 whole entry, the tested form may be a part): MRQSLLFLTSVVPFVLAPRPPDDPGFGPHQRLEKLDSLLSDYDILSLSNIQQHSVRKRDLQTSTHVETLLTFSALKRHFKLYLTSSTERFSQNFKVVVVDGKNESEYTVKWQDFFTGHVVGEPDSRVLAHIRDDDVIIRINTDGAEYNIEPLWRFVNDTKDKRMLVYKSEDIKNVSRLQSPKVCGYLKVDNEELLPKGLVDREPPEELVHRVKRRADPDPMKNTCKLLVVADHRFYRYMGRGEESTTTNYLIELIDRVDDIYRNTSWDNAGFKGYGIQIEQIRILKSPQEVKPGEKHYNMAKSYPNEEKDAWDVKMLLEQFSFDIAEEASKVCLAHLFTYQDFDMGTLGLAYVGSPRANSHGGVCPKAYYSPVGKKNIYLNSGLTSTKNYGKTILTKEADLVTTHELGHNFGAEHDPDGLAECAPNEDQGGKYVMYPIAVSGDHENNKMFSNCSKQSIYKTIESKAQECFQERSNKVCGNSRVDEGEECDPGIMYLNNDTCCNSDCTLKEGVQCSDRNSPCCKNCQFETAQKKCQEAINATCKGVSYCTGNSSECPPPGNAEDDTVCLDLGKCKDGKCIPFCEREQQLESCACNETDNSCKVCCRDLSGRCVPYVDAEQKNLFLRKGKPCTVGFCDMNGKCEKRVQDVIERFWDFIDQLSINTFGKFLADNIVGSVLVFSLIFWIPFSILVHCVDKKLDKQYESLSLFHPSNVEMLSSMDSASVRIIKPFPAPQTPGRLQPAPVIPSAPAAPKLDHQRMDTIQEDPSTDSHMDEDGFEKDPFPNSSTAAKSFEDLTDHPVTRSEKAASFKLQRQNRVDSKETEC

Tumor necrosis factor = Tumor necrosis factor (Homo sapiens, UniProt P01375); experiment: Inhibitory activity against tumor necrosis factor alpha (TNF-alpha) production in LPS-stimulated human PBMCs; assay type: functional
Sequence of Tumor necrosis factor (P01375 whole entry): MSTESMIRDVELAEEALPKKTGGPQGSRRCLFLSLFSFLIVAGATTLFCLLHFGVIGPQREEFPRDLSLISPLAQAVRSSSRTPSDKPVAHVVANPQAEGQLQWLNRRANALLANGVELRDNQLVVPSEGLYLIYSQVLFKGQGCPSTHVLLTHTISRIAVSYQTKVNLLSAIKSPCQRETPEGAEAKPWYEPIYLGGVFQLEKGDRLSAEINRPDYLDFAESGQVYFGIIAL

[2] = molecular target: 72 kDa type IV collagenase (Homo sapiens, UniProt P08253); experiment: Inhibitory potency against Matrix metalloprotease-2 (MMP-2)
Sequence of 72 kDa type IV collagenase (P08253 whole entry): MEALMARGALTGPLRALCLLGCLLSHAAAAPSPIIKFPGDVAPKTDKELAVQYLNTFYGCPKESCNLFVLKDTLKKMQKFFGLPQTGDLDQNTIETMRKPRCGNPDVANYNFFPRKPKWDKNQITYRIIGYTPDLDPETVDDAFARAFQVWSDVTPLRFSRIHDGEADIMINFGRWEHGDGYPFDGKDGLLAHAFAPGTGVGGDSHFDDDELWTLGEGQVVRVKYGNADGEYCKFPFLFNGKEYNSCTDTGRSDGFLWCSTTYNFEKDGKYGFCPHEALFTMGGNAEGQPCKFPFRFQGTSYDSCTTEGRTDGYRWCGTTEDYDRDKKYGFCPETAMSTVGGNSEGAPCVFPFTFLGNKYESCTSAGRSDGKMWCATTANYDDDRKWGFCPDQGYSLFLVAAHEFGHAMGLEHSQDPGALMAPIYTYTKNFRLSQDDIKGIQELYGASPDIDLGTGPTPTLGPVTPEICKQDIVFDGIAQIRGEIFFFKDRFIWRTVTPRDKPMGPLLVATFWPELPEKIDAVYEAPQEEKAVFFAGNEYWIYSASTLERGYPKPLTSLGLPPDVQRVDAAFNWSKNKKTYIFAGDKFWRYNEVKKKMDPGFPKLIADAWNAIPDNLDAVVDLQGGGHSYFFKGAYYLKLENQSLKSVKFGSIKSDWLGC

Sequence of Stromelysin-1 (P08254 whole entry): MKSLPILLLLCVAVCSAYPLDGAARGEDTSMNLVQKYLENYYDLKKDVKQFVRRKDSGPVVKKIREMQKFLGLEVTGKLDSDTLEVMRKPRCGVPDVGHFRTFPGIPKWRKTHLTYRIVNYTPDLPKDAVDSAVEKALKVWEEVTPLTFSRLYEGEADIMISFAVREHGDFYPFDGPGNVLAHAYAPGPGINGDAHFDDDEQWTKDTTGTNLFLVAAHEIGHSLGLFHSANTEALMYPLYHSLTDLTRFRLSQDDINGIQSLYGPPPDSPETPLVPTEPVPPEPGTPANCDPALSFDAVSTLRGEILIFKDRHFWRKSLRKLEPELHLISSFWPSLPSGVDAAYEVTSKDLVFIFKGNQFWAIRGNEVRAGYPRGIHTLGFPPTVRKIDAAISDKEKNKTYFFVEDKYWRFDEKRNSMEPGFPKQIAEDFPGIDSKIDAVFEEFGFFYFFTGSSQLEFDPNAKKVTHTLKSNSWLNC

Row | SMILES | Ki (Stromelysin-1) [nM] | Ki (Interstitial collagenase) [nM] | Ki [1] [nM] | IC50 (Tumor necrosis factor) [nM] | Ki [2] [nM]
1 | CNC(=O)[C@@H](NC(=O)[C@H](c1ccccc1)[C@H](CO)C(=O)NO)C(C)(C)C | 13.2 | 3.5 | 4.9 | 928 | 4.8
2 | CNC(=O)[C@@H](NC(=O)[C@H](c1ccc(C)cc1)[C@H](CO)C(=O)NO)C(C)(C)C | 15.2 | 2 | 3.8 | 269 | 0.3
3 | CNC(=O)[C@@H](NC(=O)[C@H](CC(C)C)[C@H](O)C(=O)NO)C(C)(C)C |  |  |  | 1000 | 
4 | CNC(=O)[C@@H](NC(=O)[C@H](c1ccc(OC)cc1)[C@H](CO)C(=O)NO)C(C)(C)C | 0.9 | 1.1 | 0.6 | 48 | 0.5
5 | CNC(=O)[C@@H](NC(=O)[C@H](CC(C)C)[C@H](CO)C(=O)NO)C(C)(C)C | 9.8 | 0.6 | 12.9 | 1610 | 0.3

From ChEMBL document CHEMBL1135424, “Beta-aryl-succinic acid hydroxamates as dual inhibitors of matrix metalloproteinases and tumor necrosis factor alpha converting enzyme” (J Med Chem, 2002)
